Assay results published in ChEMBL document CHEMBL1201862, “PubChem BioAssay data set” (2004).
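Compound exposure: 48 hours, 5 concentrations, 96-well plates. At the GI50, growth is halved.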 Activity calls are given as the source filed them. No stated cut-off is given here; in the data, active = GI50 up to about 1.1 µM and inactive = higher.

What was measured:
Assay in all cases: inhibition of tumour cell growth, NCI panel, 48 h
T47D = system: T47D
ACHN = system: ACHN
NCI-H226 = system: NCI-H226
786-0 = system: 786-0
A549 = system: A549
Hs-578T = system: Hs-578T
RXF 393 = system: RXF 393
UACC-257 = system: UACC-257
SF-268 = system: SF-268
IGROV-1 = system: IGROV-1
SR = system: SR
HL-60 = system: HL-60
EKVX = system: EKVX
HOP-92 = system: HOP-92
HCT-116 = system: HCT-116
BT-549 = system: BT-549
HCC 2998 = system: HCC 2998
NCI-H522 = system: NCI-H522
NCI-H23 = system: NCI-H23
DU-145 = system: DU-145
SF-295 = system: SF-295
NCI-H460 = system: NCI-H460
HCT-15 = system: HCT-15
OVCAR-5 = system: OVCAR-5
KM12 = system: KM12
OVCAR-3 = system: OVCAR-3
LOX IMVI = system: LOX IMVI
MOLT-4 = system: MOLT-4
CAKI-1 = system: CAKI-1
RPMI-8226 = system: RPMI-8226
COLO 205 = system: COLO 205
PC-3 = system: PC-3
NCI/ADR-RES = system: NCI/ADR-RES
SK-MEL-28 = system: SK-MEL-28
HOP-62 = system: HOP-62
SNB-19 = system: SNB-19
M14 = system: M14
MDA-MB-435 = system: MDA-MB-435
TK-10 = system: TK-10
UACC-62 = system: UACC-62
CCRF-CEM = system: CCRF-CEM
SW-620 = system: SW-620
UO-31 = system: UO-31
MDA-MB-231 = system: MDA-MB-231
OVCAR-4 = system: OVCAR-4
MCF7 = system: MCF7
SK-MEL-2 = system: SK-MEL-2
U-251 = system: U-251
Malme-3M = system: Malme-3M
HT-29 = system: HT-29
K562 = system: K562
MDA-N = system: MDA-N
A498 = system: A498
SK-OV-3 = system: SK-OV-3
SN12C = system: SN12C
SK-MEL-5 = system: SK-MEL-5
SF-539 = system: SF-539
OVCAR-8 = system: OVCAR-8
SNB-75 = system: SNB-75
KM-20L2 = system: KM-20L2

O=C(CNC(=O)OCc1ccccc1)NCCCCC(NC(=O)OCc1ccccc1)C(=O)O (stereo not given)
GI50 (T47D): > 100 µM (inactive)
GI50 (ACHN): > 100 µM (inactive)
GI50 (NCI-H226): > 100 µM (inactive)
GI50 (786-0): > 100 µM (inactive)
GI50 (A549): > 100 µM (inactive)
GI50 (Hs-578T): > 100 µM (inactive)
GI50 (RXF 393): > 100 µM (inactive)
GI50 (UACC-257): > 100 µM (inactive)
GI50 (SF-268): > 100 µM (inactive)
GI50 (IGROV-1): > 100 µM (inactive)
GI50 (SR): > 100 µM (inactive)
GI50 (HL-60): > 100 µM (inactive)
GI50 (EKVX): > 100 µM (inactive)
GI50 (HOP-92): > 100 µM (inactive)
GI50 (HCT-116): > 100 µM (inactive)
GI50 (BT-549): > 100 µM (inactive)
GI50 (HCC 2998): > 100 µM (inactive)
GI50 (NCI-H522): > 100 µM (inactive)
GI50 (NCI-H23): > 100 µM (inactive)
GI50 (DU-145): > 100 µM (inactive)
GI50 (SF-295): > 100 µM (inactive)
GI50 (NCI-H460): > 100 µM (inactive)
GI50 (HCT-15): > 100 µM
GI50 (OVCAR-5): > 100 µM (inactive)
GI50 (KM12): > 100 µM (inactive)
GI50 (OVCAR-3): > 100 µM (inactive)
GI50 (LOX IMVI): > 100 µM (inactive)
GI50 (MOLT-4): > 100 µM (inactive)
GI50 (CAKI-1): > 100 µM (inactive)
GI50 (RPMI-8226): > 100 µM (inactive)
GI50 (COLO 205): > 100 µM (inactive)
GI50 (PC-3): > 100 µM (inactive)
GI50 (NCI/ADR-RES): > 100 µM (inactive)
GI50 (SK-MEL-28): > 100 µM (inactive)
GI50 (HOP-62): > 100 µM (inactive)
GI50 (SNB-19): > 100 µM (inactive)
GI50 (M14): > 100 µM (inactive)
GI50 (MDA-MB-435): > 100 µM (inactive)
GI50 (TK-10): > 100 µM (inactive)
GI50 (UACC-62): > 100 µM (inactive)
GI50 (CCRF-CEM): > 100 µM (inactive)
GI50 (SW-620): > 100 µM (inactive)
GI50 (UO-31): > 100 µM (inactive)
GI50 (MDA-MB-231): > 100 µM (inactive)
GI50 (OVCAR-4): > 100 µM (inactive)
GI50 (MCF7): > 100 µM (inactive)
GI50 (SK-MEL-2): > 100 µM (inactive)
GI50 (U-251): > 100 µM (inactive)
GI50 (Malme-3M): > 100 µM (inactive)
GI50 (HT-29): > 100 µM (inactive)
GI50 (K562): > 100 µM (inactive)
GI50 (MDA-N): > 100 µM (inactive)
GI50 (A498): > 100 µM (inactive)
GI50 (SK-OV-3): > 100 µM (inactive)
GI50 (SN12C): > 100 µM (inactive)
GI50 (SK-MEL-5): > 100 µM (inactive)
GI50 (SF-539): > 100 µM (inactive)
GI50 (OVCAR-8): > 100 µM (inactive)
GI50 (SNB-75): > 100 µM (inactive)

CS(=O)(=O)OCCCCOS(=O)(=O)CF
GI50 (T47D): > 100 µM (inactive)
GI50 (ACHN): 52.6 µM (inactive)
GI50 (NCI-H226): > 100 µM (inactive)
GI50 (786-0): > 100 µM (inactive)
GI50 (A549): > 100 µM (inactive)
GI50 (Hs-578T): > 100 µM (inactive)
GI50 (RXF 393): > 100 µM (inactive)
GI50 (UACC-257): > 100 µM (inactive)
GI50 (SF-268): > 100 µM (inactive)
GI50 (IGROV-1): > 91.4 µM (inactive)
GI50 (SR): > 73.3 µM (inactive)
GI50 (HL-60): 33.5 µM (inactive)
GI50 (EKVX): > 100 µM (inactive)
GI50 (HOP-92): > 49.5 µM (inactive)
GI50 (HCT-116): > 100 µM (inactive)
GI50 (BT-549): > 100 µM (inactive)
GI50 (HCC 2998): > 100 µM (inactive)
GI50 (NCI-H522): > 100 µM (inactive)
GI50 (NCI-H23): > 100 µM (inactive)
GI50 (DU-145): > 100 µM (inactive)
GI50 (SF-295): > 100 µM (inactive)
GI50 (NCI-H460): 56 µM (inactive)
GI50 (HCT-15): > 100 µM
GI50 (OVCAR-5): > 100 µM (inactive)
GI50 (KM12): > 100 µM (inactive)
GI50 (OVCAR-3): > 100 µM (inactive)
GI50 (LOX IMVI): > 100 µM (inactive)
GI50 (MOLT-4): 32.9 µM (inactive)
GI50 (CAKI-1): > 72.1 µM (inactive)
GI50 (RPMI-8226): > 100 µM (inactive)
GI50 (COLO 205): > 100 µM (inactive)
GI50 (PC-3): > 100 µM (inactive)
GI50 (NCI/ADR-RES): > 100 µM (inactive)
GI50 (SK-MEL-28): > 100 µM (inactive)
GI50 (HOP-62): > 100 µM (inactive)
GI50 (SNB-19): > 100 µM (inactive)
GI50 (M14): > 100 µM (inactive)
GI50 (MDA-MB-435): > 100 µM (inactive)
GI50 (TK-10): > 100 µM (inactive)
GI50 (UACC-62): > 100 µM (inactive)
GI50 (CCRF-CEM): 52.4 µM (inactive)
GI50 (SW-620): > 100 µM (inactive)
GI50 (UO-31): > 100 µM (inactive)
GI50 (MDA-MB-231): > 100 µM (inactive)
GI50 (OVCAR-4): > 100 µM (inactive)
GI50 (MCF7): > 95.1 µM (inactive)
GI50 (SK-MEL-2): > 100 µM (inactive)
GI50 (U-251): > 100 µM (inactive)
GI50 (Malme-3M): > 46.5 µM (inactive)
GI50 (HT-29): > 100 µM (inactive)
GI50 (K562): > 100 µM (inactive)
GI50 (MDA-N): > 100 µM (inactive)
GI50 (A498): > 100 µM (inactive)
GI50 (SK-OV-3): > 100 µM (inactive)
GI50 (SN12C): > 100 µM (inactive)
GI50 (SK-MEL-5): > 100 µM (inactive)
GI50 (SF-539): > 100 µM (inactive)
GI50 (OVCAR-8): > 100 µM (inactive)
GI50 (SNB-75): > 100 µM (inactive)

Nc1nn2c(nc(N)c3c(N)n[nH]c32)c1/N=N\c1ccc(Br)cc1
GI50 (T47D): 1.76 µM (inactive)
GI50 (ACHN): 69.3 µM (inactive)
GI50 (NCI-H226): 55 µM (inactive)
GI50 (786-0): 40.9 µM (inactive)
GI50 (A549): > 100 µM (inactive)
GI50 (Hs-578T): 3.32 µM (inactive)
GI50 (RXF 393): > 100 µM (inactive)
GI50 (UACC-257): 26.7 µM (inactive)
GI50 (SF-268): 7.66 µM (inactive)
GI50 (IGROV-1): 81.8 µM (inactive)
GI50 (SR): 2.72 µM (inactive)
GI50 (HL-60): 8.15 µM (inactive)
GI50 (EKVX): > 100 µM (inactive)
GI50 (HOP-92): 3.71 µM (inactive)
GI50 (HCT-116): 53.8 µM (inactive)
GI50 (BT-549): 2.92 µM (inactive)
GI50 (HCC 2998): > 100 µM (inactive)
GI50 (NCI-H522): 27.5 µM (inactive)
GI50 (NCI-H23): > 5.61 µM (inactive)
GI50 (DU-145): > 100 µM (inactive)
GI50 (SF-295): > 100 µM (inactive)
GI50 (NCI-H460): > 100 µM (inactive)
GI50 (HCT-15): > 91.8 µM
GI50 (OVCAR-5): 23.7 µM (inactive)
GI50 (KM12): 13.1 µM (inactive)
GI50 (OVCAR-3): 32.6 µM (inactive)
GI50 (LOX IMVI): 2.88 µM (inactive)
GI50 (MOLT-4): 3.53 µM (inactive)
GI50 (CAKI-1): > 100 µM (inactive)
GI50 (RPMI-8226): > 100 µM (inactive)
GI50 (COLO 205): > 63.2 µM (inactive)
GI50 (PC-3): > 100 µM (inactive)
GI50 (NCI/ADR-RES): > 100 µM (inactive)
GI50 (SK-MEL-28): 7.73 µM (inactive)
GI50 (HOP-62): 42.9 µM (inactive)
GI50 (SNB-19): 29.9 µM (inactive)
GI50 (M14): 5.86 µM (inactive)
GI50 (MDA-MB-435): 3.13 µM (inactive)
GI50 (TK-10): 66.8 µM (inactive)
GI50 (UACC-62): > 100 µM (inactive)
GI50 (CCRF-CEM): 2.1 µM (inactive)
GI50 (SW-620): 43.7 µM (inactive)
GI50 (UO-31): > 100 µM (inactive)
GI50 (MDA-MB-231): 0.524 µM (active)
GI50 (OVCAR-4): 16.4 µM (inactive)
GI50 (MCF7): > 100 µM (inactive)
GI50 (SK-MEL-2): 12.3 µM (inactive)
GI50 (U-251): 6.01 µM (inactive)
GI50 (Malme-3M): 4.42 µM (inactive)
GI50 (HT-29): 55.8 µM (inactive)
GI50 (K562): 2.16 µM (inactive)
GI50 (MDA-N): 3.65 µM (inactive)
GI50 (A498): > 100 µM (inactive)
GI50 (SK-OV-3): > 100 µM (inactive)
GI50 (SN12C): 7.76 µM (inactive)
GI50 (SK-MEL-5): > 100 µM (inactive)
GI50 (SF-539): 15.1 µM (inactive)
GI50 (OVCAR-8): 21 µM (inactive)
GI50 (SNB-75): 18.1 µM (inactive)

O=C1C=C[C@@]23C[C@@H](NC4=C2C2=NCCc5c[nH]c(c52)C4=O)SC3=C1 [1-DEBROMODISCORHABDIN B]
GI50 (NCI-H226): 14.6 µM (inactive)
GI50 (HL-60): 1.67 µM (inactive)
GI50 (HCT-116): 1.75 µM (inactive)
GI50 (NCI-H522): 1.69 µM (inactive)
GI50 (KM12): 6.43 µM (inactive)
GI50 (MOLT-4): 1.99 µM (inactive)
GI50 (CAKI-1): 17.7 µM (inactive)
GI50 (COLO 205): 1.55 µM (inactive)
GI50 (SNB-19): 16.3 µM (inactive)
GI50 (MDA-MB-435): 1.63 µM (inactive)
GI50 (TK-10): 14.6 µM (inactive)
GI50 (CCRF-CEM): 2.86 µM (inactive)
GI50 (UO-31): 9.35 µM (inactive)
GI50 (KM-20L2): 3.01 µM (inactive)
GI50 (Malme-3M): 1.25 µM (inactive)
GI50 (HT-29): 2.22 µM (inactive)
GI50 (MDA-N): 1.73 µM (inactive)
GI50 (SK-OV-3): 18.7 µM (inactive)
